Source: US20240410831A1, “Multi-Mode Zinc-Selective Emission-Ratiometric Fluorescent Probes for Biological Application” (Georgia Tech Research Corporation, priority 2023, published 2024)

Legend:
[1] = Metal-ion selectivity measurement (emission-ratiometric response); format: physicochemical; settings: liposomes, pH 7.0
Description: FIG. 5C illustrates an exemplary table providing exemplary photophysical properties of Formula I, Formula II, and/or a derivative thereof (e.g., for example probe 8) and its Zn(II)-probe complex in PIPES buffer containing 100 μM of 4:1 DMPC:DMPG liposomes (pH 7.0, 10 mM PIPES, 0.1 M KCl, 25° C.). The fluorescence response of the probe 8 (10 PM) was measured in the presence of 100 μM 4:1 DMPC:DMPG liposomes (pH 7.0, 10 mM PIPES, 0.1 M KCl, 25° C.) and an excess of selected biologically relevant divalent metal ions (FIG. 5A). […]
A solution of Formula I, Formula II, and/or a derivative thereof (e.g., for example probe 8) (10 μM) in Chelex®-PIPES buffer (10 mM, 0.1 M KCl, pH 7.0, 25° C.) containing 100 μM of liposomes (4:1 mixture of DMPC and DMPG) prepared in a quartz cuvette with a 1-cm pathlength. A fluorescence spectrum was acquired over the spectral window of 415-700 nm with excitation at 405 nm. Under magnetic stirring, the solution was supplemented with each divalent metal cation (8.0 μM, which corresponds to 80% fractional saturation of the probe, or 2.0 mM Ca(II) and Mg(II) ions), and a fluorescence spectrum was immediately acquired. […] The fluorescence spectrum was acquired after 10 min equilibration to ensure complete formation of the probe 8 Zn(II)-complex. […]

[2] = Fluorometric competition titration with EGTA, Zn(II) complex stability constant; format: binding
Description: FIG. 6A illustrates the fluorometric determination of the Zn(II) complex stability constant of probe 8 via competition titration with EGTA. (A) of FIG. 6A illustrates an exemplary Formula I, Formula II, and/or a derivative thereof (e.g., for example probe 8) (10 μM) that was equilibrated with molar equivalent of Zn(OTf)2 in chelexed PIPES buffer (pH 7.0, 10 mM PIPES, 0.1 M KCl, 25° C.) containing 100 μM 4:1 DMPC:DMPG liposomes and titrated with EGTA to a final concentration of 50 μM. The fluorescence spectra (excitation at 405 nm) were analyzed by non-linear least squares fitting. (B) FIG. 6A illustrates an exemplary change in fluorescence response at 515 nm with the corresponding fit using the equilibrium system model as defined in the table of FIG. 6B.
The binding affinity of Formula I, Formula II, and/or a derivative thereof (e.g., for example probe 8) was analyzed in PIPES buffer containing 100 μM of 4:1 DMPC:DMPG liposomes (pH 7.0, 10 mM PIPES, 0.1 M KCl, 25° C.). […] The binding affinity is over 400-fold weaker than chromis-1 acid, and approximately 10-fold lower than chromis-1 ester. The discrepancy in binding affinities is likely due to a combination of two factors. […]
A solution of Formula I, Formula II, and/or a derivative thereof (e.g., for example probe 8) was diluted from a 3.0 mM DMSO stock solution to a final concentration of 10 μM in Chelex®-treated PIPES buffer (10 mM, 0.1 M KCl, pH 7.0) containing 10 μM of Zn(OTf)2 and 100 μM of liposomes (4:1 mixture of DMPC and DMPG). […] After the addition of each aliquot of EGTA, the solution was allowed to equilibrate for 1 minute, and a fluorescence spectrum (excitation at 405 nm, spectral window 415-665 nm) was acquired. The titration was conducted in triplicate, and the data were analyzed by nonlinear least-squares fitting over the entire spectral range using the SPECFIT software package.

[3] = Fluorescence quantum yield measurement; format: physicochemical; settings: liposome solution, pH 7.0 PIPES
Description: The quantum yields of the free Formula I, Formula II, and/or a derivative thereof (e.g., for example probe 8) was determined using quinine sulfate as a reference (Df=0.546 in 1.0 N H2SO4). The quantum yield was derived from a 5-point measurement in Chelex®-treated PIPES buffer containing 100 μM of 4:1 DMPC:DMPG liposomes (pH 7.0, 10 mM PIPES, 0.1 M KCl, 25° C.). For the free compound 1 (e.g., for example probe 8 in FIG. 4H), the solutions were supplemented with 20 μM of EDTA (from a 3.0 mM stock solution in DI H2O). The quantum yield of the probe 8-Zn(II) complex was independently determined under the same conditions in the presence of 1.1 molar equivalent of Zn(OTf)2. The quantum yield of the Zn(II) complex was confirmed with fluorescence quantum yield ratio. The fluorescence quantum yields were calculated as an average of two independent measurements.

binding affinity weaker than chromis-1 acid ([2]; Zn(II) affinity compared with chromis-1 acid): over 400 fold | binding affinity lower than chromis-1 ester ([2]; Zn(II) affinity compared with chromis-1 ester): approximately 10 fold | Kd ([2]; pH 7.0, ionic background 0.1 M KCl, 25° C., liposomes, read-out: apparent dissociation constant Kd for Zn(II)): 18.5 nM | quantum yield ([3]; Zn(II)-probe complex): 78% | quantum yield ([3]; free probe): 72%
SMILES: COc1ccc2c(c1)C(C)(C)c1nc(-c3cccc(CN(Cc4ncccn4)Cc4ncccn4)n3)sc1-2 [probe 8]
fluorescence response to Ca(II) and Mg(II) ([1]; 2.0 mM of either metal ion): Neither Ca(II) nor Mg(II) resulted in any significant fluorescence change | fluorescence response to divalent transition metals ([1]; 0.8 molar equivalents of metal, 10 μM probe): quenching of the fluorescence
